# Experimental data from US20150320723A1, “Use of Small Molecule Unfolder Protein Response Modulators to Treat Tumors With Active Sonic Hedgehog (SSH) Signaling Due To Smoothened (SMO) Mutation” (ST. JUDE CHILDREN'S RESEARCH HOSPITAL, priority 2013, published 2015).
# “Also recorded” adds a separate entry of the source. Residues, ends and D or L forms follow the SMILES beside them. *: point of attachment. Cbz = O=C(OCc1ccccc1)*
# How the values were obtained:
# [1] = test system: wild type, C318A and M2 mSmo proteins; experiment: Temperature sensitivity analysis at 40° C. with the proteasome inhibitor MG132, western blot, NIH3T3 cells; format: cell-based, mouse
# Protocol: Given that the bulk of mSmoC318A and mSmoM2 are ER-localized, it was reasoned that, like the active Drosophila mutants, they would be affected by induction of a thermal ER stress response. Thermal ER stress has been observed in mammalian cells cultured at 40° C. (Xu et al., 2011 [53]). Accordingly, it was observed induction of the ER stress response transcription factor CHOP in NIH3T3 cells incubated at this high temperature for 2-4 hours (FIG. 5C). To assess the effect of thermal ER stress on mSmo proteins, wild type, C318A or mSmoM2 was expressed in NIH3T3 cells cultured at 37° C., then shifted to 40° C. for 4 hours prior to whole-cell lysis (FIG. 5C′). […] (FIG. 5C′ lanes 3-6 compared to 1-2). This destabilization is the likely result of ER-associated protein degradation (ERAD), as the ER-resident forms of all three Smo variants were stabilized at 40° C. by the proteasome inhibitor MG132 (FIG. 5C′ white arrowhead, lanes 8, 10 and 12 compared to 7, 9 and 11). The post-ER form of wild type Smo was not altered by MG132 treatment (FIG. 5C′ black arrowhead, lanes 7-8).
# For protein stability analysis in mammalian cells, ˜1×10^6NIH3T3 cells were transfected with 2 ug of wild type or mutant pcDNA3.1-amino expression vector (Carroll et al., 2012 [31]). For temperature sensitivity analysis, transfected cells were maintained at 37° C. for ˜44 hours, and then shifted to 40° C. for 4 hours prior to lysis. Whole-cell lysates were prepared in modified RIPA buffer (50 mM Tris-HCl, pH 7.4, 150 mM NaCl, 0.25% deoxycholic acid, 1% NP-40, 1 mM EDTA, 0.1% SDS, 0.5 mM DTT, and 1× PIC (Roche)) by rocking for 30 minutes at 4° C. as described (Nachtergaele et al., 2012 [62]). Cell extracts were cleared by centrifuging at 16,000×g at 4° C. for 45 minutes. Supernatants were collected and analyzed by SDS-Page and western blot using anti-GADD153/CHOP (B-3, SCBT) anti-Smo (E5, SCBT) and anti-tubulin (Cell Signaling) antibodies. […] Whole-cell lysates were prepared in modified RIPA buffer and analyzed as above.
# oncogenic SmoM2 protein = experiment: Initial testing of compounds: SmoM2 protein stability in cultured mouse NIH3T3 cells; format: cell-based
# From the text: The four ER stress/UPR modulating compounds listed below (abbreviated and commercial names in parentheses) destabilize oncogenic SmoM2 protein in cultured mouse NIH3T3 cells. • 1. 17-N-Allylamino-17-demethoxygeldanamycin (17-AAG, KOS-953,Tanespimycin), • 2. 17-Dimethylaminoethylamino-17-demethoxygeldanamycin (17-DMAG, KOS-1022, Alvespimycin), • 3. 4-(6,6-dimethyl-4-oxo-3-(trifluoromethyl)-4,5,6,7-tetrahydroindazol-1-yl)-2-((1r,4r)-4-hydroxycyclohexylamino)benzamide (SNX-2112) • 4. Eeyarestatin I (EerI).
# [2] = test system: unfolded protein response (UPR) in myeloma cells; details: cited from earlier work
# [3] = cited from earlier work
structure (smiles),measurement,setting,value
CC(C)C[C@@H](C=O)NC(=O)[C@H](CC(C)C)NC(=O)[C@H](CC(C)C)NC(=O)OCc1ccccc1 [MG132] (Cbz-Leu-Leu-Leu-aldehyde),"ER-resident forms of all three Smo variants (wild type, C318A, M2): protein stability","[1]; NIH3T3 cells shifted to 40° C. for 4 hours, MG132 treatment",stabilized
same,post-ER form of wild type Smo,"[1]; NIH3T3 cells shifted to 40° C., MG132 treatment",unaffected; also recorded: not altered
same,destabilization of the ER-resident forms of wild type and both mutants at 40° C.,"[1]; NIH3T3 cells shifted to 40° C., MG132 treatment (FIG. 5C' legend)",attenuated
"CC1(C)CC(=O)c2c(C(F)(F)F)nn(-c3ccc(C(N)=O)c(N[C@H]4CC[C@H](O)CC4)c3)c2C1 [SNX-2112, 4-(6,6-dimethyl-4-oxo-3-(trifluoromethyl)-4,5,6,7-tetrahydroindazol-1-yl)-2-((1r,4r)-4-hydroxycyclohexylamino)benzamide]",effect on oncogenic SmoM2 protein,oncogenic SmoM2 protein,destabilize
"C=CCNC1=C2C[C@@H](C)C[C@H](OC)[C@H](O)[C@@H](C)/C=C(\C)[C@H](OC(N)=O)[C@@H](OC)/C=C\C=C(/C)C(=O)NC(=CC1=O)C2=O [17-AAG, 17-N-Allylamino-17-demethoxygeldanamycin]",effect on oncogenic SmoM2 protein,oncogenic SmoM2 protein,destabilize
same,activation of the branches of the UPR,[2],capable of activating all three branches of the UPR
"CC1(C)C(N(O)C(=O)Nc2ccc(Cl)cc2)N(c2ccc(Cl)cc2)C(=O)N1CC(=O)NN=CC=Cc1ccc([N+](=O)[O-])o1 (stereo not shown) [Eeyarestatin I, 3-(4-Chlorophenyl)-4-[[[(4-chlorophenyl)amino]carbonyl]hydroxyamino]-5,5-dimethyl-2-oxo-1-imidazolidineacetic acid 2-[3-(5-nitro-2-furanyl)-2-propen-1-ylidene]hydrazide]",effect on oncogenic SmoM2 protein,oncogenic SmoM2 protein,destabilize
"CO[C@H]1/C=C\C=C(/C)C(=O)NC2=CC(=O)C(NCCN(C)C)=C(C[C@@H](C)C[C@H](OC)[C@H](O)[C@@H](C)/C=C(\C)[C@@H]1OC(N)=O)C2=O [17-DMAG, 17-Dimethylaminoethylamino-17-demethoxygeldanamycin]",effect on oncogenic SmoM2 protein,oncogenic SmoM2 protein,destabilize
C[C@@H]1C[C@H]2O[C@@H]2/C=C\C=C\C(=O)Cc2c(Cl)c(O)cc(O)c2C(=O)O1 [radicicol],activation of the branches of the UPR,[2],capable of activating all three branches of the UPR
C/C=C(/C)C(=O)O[C@H]1C(C)=C2[C@H]([C@@H]1OC(=O)CCCCCCC)[C@@](C)(OC(C)=O)C[C@H](OC(=O)CCCCCCCCCCCNC(=O)C[C@H](N)C(=O)N[C@@H](CCC(=O)N[C@@H](CCC(=O)N[C@@H](CCC(=O)N[C@@H](CCC(=O)O)C(=O)O)C(=O)O)C(=O)O)C(=O)O)[C@@]1(O)[C@H]2OC(=O)[C@@]1(C)O [G-202],in vivo toxicity relative to thapsigargin,[3],significantly reduced
